These results are taken from US11325899B2, “Benzofurane and benzothiophene derivatives as PGE2 receptor modulators” (IDORSIA PHARMACEUTICALS LTD, priority 2017, dated 2022).

As usually defined, the IC50 is the concentration that inhibits the measured activity by half.

Test [1] concerns the target T1, PTGER2 (EP2) (Homo sapiens, UniProt P43116).
T1 construct: host or cells: HEK 293 (PathHunter PTGER2 b-arrestin cell line)
The test can be described thus: hEP2 b-arrestin assay (PathHunter HEK 293 PTGER2 b-arrestin cells). It is filed as cell-based. To be noted: antagonistic activity, beta-arrestin assay; read-out: hEP2 b-arr IC50. In short, it runs like this:
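Antagonism measured as inhibition of PGE2-driven β-arrestin 2 recruitment (enzyme fragment complementation, luminescence) in engineered HEK293 EP2 cells. Agonist: 5 μM PGE2, ~EC80, 120 min at 37 °C after 15 min compound preincubation; test range 10 μM-2 nM or 1 μM-0.2 nM, duplicates, IC50 fitted.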

Test [2] deals with T2, EP4 receptor (Homo sapiens, UniProt P35408).
T2 construct: BT549 breast cancer cells, express high endogenous EP4 levels and very low EP2 levels; host or cells: BT549 breast cancer cells
The test can be described thus: hEP4 cAMP assay (BT549 breast cancer cells, HTRF cAMP, PGE2 stimulation). It is filed as cell-based. Conditions: antagonistic activity, PGE2 6 nM (EC80). In short, it runs like this: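 BT549 cells, with endogenous EP4 and very low EP2, were preincubated 45 min at room temperature with compound in HBSS/HEPES/BSA buffer with 2 mM IBMX. They were then stimulated 30 min with 6 nM PGE2 (EC80). cAMP was measured by HTRF competitive immunoassay against a calibrator; IC50 from duplicate dose-response as % of DMSO control.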
For orientation: cAMP levels reflect the balance of adenylyl cyclase and phosphodiesterase activity.

T2 sequence (P35408 whole entry): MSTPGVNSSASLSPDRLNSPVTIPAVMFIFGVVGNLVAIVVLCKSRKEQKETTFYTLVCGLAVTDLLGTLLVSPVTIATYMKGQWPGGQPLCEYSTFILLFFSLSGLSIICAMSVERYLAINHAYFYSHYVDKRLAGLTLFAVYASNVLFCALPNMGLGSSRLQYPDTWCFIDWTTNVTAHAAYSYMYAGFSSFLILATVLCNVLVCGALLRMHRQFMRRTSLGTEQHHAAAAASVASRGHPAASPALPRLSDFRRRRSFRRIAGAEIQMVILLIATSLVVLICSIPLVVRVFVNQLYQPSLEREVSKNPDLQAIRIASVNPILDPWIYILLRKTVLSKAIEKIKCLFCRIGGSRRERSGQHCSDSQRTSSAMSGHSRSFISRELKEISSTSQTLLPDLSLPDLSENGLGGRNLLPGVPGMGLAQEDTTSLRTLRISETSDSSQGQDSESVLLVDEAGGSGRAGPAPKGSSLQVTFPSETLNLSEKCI
T1 sequence (P43116 whole entry): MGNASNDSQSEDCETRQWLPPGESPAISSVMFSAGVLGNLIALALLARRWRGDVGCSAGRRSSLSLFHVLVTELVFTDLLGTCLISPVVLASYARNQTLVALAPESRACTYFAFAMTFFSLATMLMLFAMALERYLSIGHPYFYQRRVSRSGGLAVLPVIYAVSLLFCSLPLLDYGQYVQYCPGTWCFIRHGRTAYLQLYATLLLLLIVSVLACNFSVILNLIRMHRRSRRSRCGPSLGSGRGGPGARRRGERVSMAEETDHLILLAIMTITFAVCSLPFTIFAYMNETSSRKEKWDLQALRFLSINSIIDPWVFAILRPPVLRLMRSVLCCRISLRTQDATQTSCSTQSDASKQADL

For the molecule `COc1cc(Cl)cc2c(CCNc3cc(-c4cc(F)c(C(=O)O)c(OC5CCC5)c4)ncn3)c(C)oc12` [Example 151, 4-{6-[2-(5-Chloro-7-methoxy-2-methyl-benzofuran-3-yl)-ethylamino]-pyrimidin-4-yl}-2-cyclobutoxy-6-fluoro-benzoic acid], the IC50 was determined as 60 nM in test [1] and 631 nM in test [2].
For the molecule `Cc1sc2c(C)cc(F)cc2c1CCNc1cc(-c2ccc(C(=O)O)c(OC3CCCC3)c2)ncn1` [Example 152, 2-Cyclopentyloxy-4-{6-[2-(5-fluoro-2,7-dimethyl-benzo[b]thiophen-3-yl)-ethylamino]-pyrimidin-4-yl}-benzoic acid], the IC50 in test [1] is 27 nM; in test [2] it was 581 nM.
The like results for `COc1ccc(Cl)c2c(CCNc3cc(-c4ccc(C(=O)O)c(OC5CCCC5)c4)ncn3)c(C)sc12` [Example 153, 4-{6-[2-(4-Chloro-7-methoxy-2-methyl-benzo[b]thiophen-3-yl)-ethylamino]-pyrimidin-4-yl}-2-cyclopentyloxy-benzoic acid] were, in that order, 46 nM and 827 nM.
The like results for `Cc1oc2c(C)cc(F)cc2c1CCNc1cc(-c2ccc(C(=O)O)c(OC3CCCC3)c2)ncn1` [Example 154, 2-Cyclopentyloxy-4-{6-[2-(5-fluoro-2,7-dimethyl-benzofuran-3-yl)-ethylamino]-pyrimidin-4-yl}-benzoic acid] were, in that order, 47 nM and 901 nM.
The like results for `CCOc1cc(-c2cc(NCCc3c(C)sc4c(C)cc(F)cc34)ncn2)ccc1-c1noc(=O)[nH]1` [Example 155, 3-(2-Ethoxy-4-{6-[2-(5-fluoro-2,7-dimethyl-benzo[b]thiophen-3-yl)-ethylamino]-pyrimidin-4-yl}-phenyl)-[1,2,4]oxadiazol-5(4H)-one [tautomeric form: 3-(2-ethoxy-4-(6-((2-(5-fluoro-2,7-dimethylbenzo[b]thiophen-3-yl)ethyl)amino)pyrimidin-4-yl)phenyl)-[1,2,4]oxadiazol-5-ol]] were, in that order, 18 nM and 108 nM.
Regarding `CCOc1cc(-c2cc(NCCc3c(C)sc4c(C)cc(F)cc34)ncn2)sc1C(=O)NS(N)(=O)=O` [Example 156, 3-Ethoxy-5-(6-((2-(5-fluoro-2,7-dimethylbenzo[b]thiophen-3-yl)ethyl)amino)pyrimidin-4-yl)-N-sulfamoylthiophene-2-carboxamide], the IC50 in test [1] is 5 nM; in test [2] it was 163 nM.
`CCOc1cc(-c2cc(NCCc3c(C)sc4c(C)cc(F)cc34)ncn2)sc1C(=O)NS(C)(=O)=O` [Example 157, N-(3-Ethoxy-5-{6-[2-(5-fluoro-2,7-dimethyl-benzo[b]thiophen-3-yl)-ethylamino]-pyrimidin-4-yl}-thiophene-2-carbonyl)-methanesulfonamide]: the IC50 turned out to be 8 nM in test [1] and 69 nM in test [2].
On the same counts, the results for `CCOc1cc(-c2cc(NCCc3c(C)sc4c(C)cc(F)cc34)ncn2)sc1-c1nnn[nH]1` [Example 158, {6-[4-Ethoxy-5-(1H-tetrazol-5-yl)-thiophen-2-yl]-pyrimidin-4-yl}-[2-(5-fluoro-2,7-dimethyl-benzo[b]thiophen-3-yl)-ethyl]-amine] are 6 nM and 20 nM.
Take `CCOc1nc(-c2cc(NCCc3c(C)sc4c(C)cc(F)cc34)ncn2)sc1C(=O)O` [Example 160, 4-Ethoxy-2-{6-[2-(5-fluoro-2,7-dimethyl-benzo[b]thiophen-3-yl)-ethylamino]-pyrimidin-4-yl}-thiazole-5-carboxylic acid]: the figures for the IC50 in test [1] and in test [2] were 15 nM and 18 nM, respectively.
In the case of `CCc1nc(-c2cc(NCCc3c(C)sc4c(C)cc(F)cc34)ncn2)sc1C(=O)O` [Example 161, 4-Ethyl-2-{6-[2-(5-fluoro-2,7-dimethyl-benzo[b]thiophen-3-yl)-ethylamino]-pyrimidin-4-yl}-thiazole-5-carboxylic acid], the IC50 in test [1] is 61 nM; in test [2] it was 363 nM.
